Assay results reported in PubChem BioAssay AID330 (DTP/NCI, 2004).
Where “and” joins values, the source holds several entries; their conditions need not be identical. Equal values may be shown once. Toxic doses and inconclusive results are not listed.

Test system: P388 leukemia ip, CD2F1 mice, survival T/C
Assay: NCI In Vivo Anticancer Drug Screen. Data for tumor model P388 Leukemia (intraperitoneal) in CD2F1 (CDF1) mice
Details: endpoint: median survival time, higher = longer survival
Method in brief: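 Mice carrying the transplanted tumor received test compound or vehicle. Survival was recorded in each group, and the value is the treated-group measurement divided by that of the vehicle-treated control group.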

[1] = dose: 50.0 mg/kg/injection, schedule: Q01DX005 (ip), vehicle: Klucel (hydroxypropylcellulose) (HPC)
[2] = dose: 100.0 mg/kg/injection, schedule: Q01DX005 (ip), vehicle: Klucel (hydroxypropylcellulose) (HPC)
[3] = dose: 50.0 mg/kg/injection, schedule: Q01DX005 (ip), vehicle: saline with Tween-80
[4] = dose: 100.0 mg/kg/injection, schedule: Q01DX005 (ip), vehicle: saline with Tween-80
[5] = dose: 200.0 mg/kg/injection, schedule: Q01DX005 (ip), vehicle: saline with Tween-80
[6] = dose: 50.0 mg/kg/injection, schedule: Q01DX009 (ip), vehicle: Klucel (hydroxypropylcellulose) (HPC)
[7] = dose: 100.0 mg/kg/injection, schedule: Q01DX009 (ip), vehicle: Klucel (hydroxypropylcellulose) (HPC)
[8] = dose: 200.0 mg/kg/injection, schedule: Q01DX009 (ip), vehicle: Klucel (hydroxypropylcellulose) (HPC)
[9] = dose: 60.0 mg/kg/injection, schedule: Q01DX005 (ip), vehicle: saline with Tween-80
[10] = dose: 50.0 mg/kg/injection, schedule: Q01DX009 (ip), vehicle: saline
[11] = dose: 100.0 mg/kg/injection, schedule: Q01DX009 (ip), vehicle: saline
[12] = dose: 200.0 mg/kg/injection, schedule: Q01DX009 (ip), vehicle: saline
[13] = dose: 200.0 mg/kg/injection, schedule: Q01DX005 (ip), vehicle: Klucel (hydroxypropylcellulose) (HPC)
[14] = dose: 100.0 mg/kg/injection, schedule: Q01DX009 (ip), vehicle: saline with Tween-80
[15] = dose: 200.0 mg/kg/injection, schedule: Q01DX009 (ip), vehicle: saline with Tween-80
[16] = dose: 400.0 mg/kg/injection, schedule: Q01DX009 (ip), vehicle: saline with Tween-80

SMILES: C=C1C(=O)OC2C/C(C=O)=C/CC/C(C)=C/C(O)C12 (configuration not stated)
- T/C (dose: 9.0 mg/kg/injection, schedule: Q01DX005 (ip), vehicle: Klucel (hydroxypropylcellulose) (HPC)): 96 % of control
- T/C (dose: 18.0 mg/kg/injection, schedule: Q01DX005 (ip), vehicle: Klucel (hydroxypropylcellulose) (HPC)): 99 % of control
- T/C (dose: 36.0 mg/kg/injection, schedule: Q01DX005 (ip), vehicle: Klucel (hydroxypropylcellulose) (HPC)): 105 % of control
- T/C (dose: 72.0 mg/kg/injection, schedule: Q01DX005 (ip), vehicle: Klucel (hydroxypropylcellulose) (HPC)): 106 % of control

SMILES: COC1CC(C)C(OC)c2cc(O)cc(c2O)NC(=O)/C(C)=C/C=C\C(C)C(OC(N)=O)/C(C)=C\C(C)C1OC (configuration not stated)
- T/C (dose: 0.63 mg/kg/injection, schedule: Q01DX009 (ip), vehicle: saline + alcohol): 116 % of control
- T/C (dose: 1.25 mg/kg/injection, schedule: Q01DX009 (sc), vehicle: saline + alcohol): 99 % of control
- T/C (dose: 2.5 mg/kg/injection, schedule: Q01DX009 (sc), vehicle: saline + alcohol): 93 % of control
- T/C (dose: 5.0 mg/kg/injection, schedule: Q01DX009 (sc), vehicle: saline + Tween-80 + alcohol): 94 % of control
- T/C (dose: 5.0 mg/kg/injection, schedule: Q01DX009 (sc), vehicle: saline + alcohol): 98 % of control
- T/C (dose: 10.0 mg/kg/injection, schedule: Q01DX009 (sc), vehicle: saline + alcohol): 90 % of control
- T/C (dose: 20.0 mg/kg/injection, schedule: Q01DX009 (ip), vehicle: saline + alcohol): 160 % of control
- T/C (dose: 20.0 mg/kg/injection, schedule: Q01DX009 (oral), vehicle: saline + Tween-80 + alcohol): 92 % of control
- T/C (dose: 40.0 mg/kg/injection, schedule: Q01DX009 (oral), vehicle: saline + Tween-80 + alcohol): 93 % of control
- T/C (dose: 80.0 mg/kg/injection, schedule: Q01DX009 (oral), vehicle: saline + Tween-80 + alcohol): 92 % of control
- T/C (dose: 160.0 mg/kg/injection, schedule: Q01DX009 (oral), vehicle: saline + Tween-80 + alcohol): 94 % of control
- T/C (dose: 240.0 mg/kg/injection, schedule: Q01DX009 (oral), vehicle: saline + Tween-80 + alcohol): 103 % of control

SMILES: Cn1c(=O)oc2cc(NC(N)=O)c(Br)cc21
- T/C [1]: 92 % of control
- T/C [2]: 87 % of control

SMILES: CC1(C)OC2OCCC(N=[N+]=[N-])C2O1 (configuration not stated)
- T/C [3]: 96 % of control
- T/C [4]: 96 % of control
- T/C [5]: 94 % of control

SMILES: C=C1Sc2ccccc2N1C
- T/C (dose: 6.25 mg/kg/injection, schedule: Q01DX009 (ip), vehicle: Klucel (hydroxypropylcellulose) (HPC)): 111 % of control
- T/C (dose: 12.5 mg/kg/injection, schedule: Q01DX009 (ip), vehicle: Klucel (hydroxypropylcellulose) (HPC)): 107 % of control and 114 % of control
- T/C (dose: 25.0 mg/kg/injection, schedule: Q01DX009 (ip), vehicle: Klucel (hydroxypropylcellulose) (HPC)): 123 % of control

SMILES: O=C(c1ccccc1)C(c1ccccc1)n1nccc1-c1ccccc1 (configuration not stated)
- T/C [6]: 105 % of control
- T/C [7]: 105 % of control
- T/C [8]: 99 % of control

SMILES: Cc1ccc(C2COc3cc(O)c(O)cc3C2)cc1 (configuration not stated)
- T/C [9]: 103 % of control
- T/C (dose: 120.0 mg/kg/injection, schedule: Q01DX005 (ip), vehicle: saline with Tween-80): 105 % of control
- T/C (dose: 240.0 mg/kg/injection, schedule: Q01DX005 (ip), vehicle: saline with Tween-80): 117 % of control

SMILES: CC(C=NC1CCCCC1)c1ccccc1 (configuration not stated)
- T/C [10]: 96 % of control
- T/C [11]: 87 % of control
- T/C [12]: 102 % of control

SMILES: CC(C)C(=O)CP(=O)(O)O
- T/C [10]: 106 % of control
- T/C [11]: 101 % of control
- T/C [12]: 108 % of control

SMILES: CCOC(=O)C1=C(C)O/C(=C/c2ccccc2)C1=O
- T/C [6]: 112 % of control
- T/C [7]: 102 % of control
- T/C [8]: 92 % of control

SMILES: Cc1nc(Nc2ccccc2Cl)c2ccsc2n1
- T/C [1]: 100 % of control
- T/C [2]: 93 % of control
- T/C [13]: 87 % of control

SMILES: CC(C)(CCC(=S)N1CCOCC1)c1ccccc1
- T/C (dose: 25.0 mg/kg/injection, schedule: Q01DX009 (ip), vehicle: saline with Tween-80): 111 % of control
- T/C (dose: 50.0 mg/kg/injection, schedule: Q01DX009 (ip), vehicle: saline with Tween-80): 96 % of control
- T/C [14]: 105 % of control
- T/C [15]: 105 % of control

SMILES: CCCCCCCCCCCCCCCC(=O)O[C@@H]1[C@@H](C)[C@@]2(O)[C@@H](C=C(CO)C[C@]3(O)C(=O)C(C)=C[C@@H]23)[C@H]2[C@]1(OC(C)=O)[C@]2(C)CO
- T/C (dose: 0.13 mg/kg/injection, schedule: Q01DX005 (ip), vehicle: distilled water + Tween-80): 117 % of control and 120 % of control
- T/C (dose: 0.25 mg/kg/injection, schedule: Q01DX005 (ip), vehicle: distilled water + Tween-80): 111 % of control
- T/C (dose: 0.5 mg/kg/injection, schedule: Q01DX005 (ip), vehicle: distilled water + Tween-80): 106 % of control

SMILES: C/C=C(\C)C(=O)OC1C2C(C)=CC(O)C(O)C2(C)C2C3(O)OCC24C1OC(=O)C(O)C4C(C)C3O (configuration not stated)
- T/C (dose: 2.5 mg/kg/injection, schedule: Q01DX005 (ip), vehicle: Klucel (hydroxypropylcellulose) (HPC)): 108 % of control
- T/C (dose: 5.0 mg/kg/injection, schedule: Q01DX005 (ip), vehicle: Klucel (hydroxypropylcellulose) (HPC)): 102 % of control
- T/C (dose: 10.0 mg/kg/injection, schedule: Q01DX005 (ip), vehicle: Klucel (hydroxypropylcellulose) (HPC)): 100 % of control
- T/C (dose: 20.0 mg/kg/injection, schedule: Q01DX005 (ip), vehicle: Klucel (hydroxypropylcellulose) (HPC)): 105 % of control

SMILES: COC1=C2CC(C)CC(OC)C(O)C(C)/C=C(\C)C(OC(N)=O)C(OC)/C=C\C=C(/C)C(=O)NC(=C(C=NC(C)(C)C)C1=O)C2=O (configuration not stated)
- T/C [9]: 124 % of control

SMILES: CC1=C(c2cc3ccccc3c3ccccc23)CCCC1
- T/C [14]: 104 % of control
- T/C [15]: 98 % of control
- T/C [16]: 100 % of control

SMILES: CCOC(=O)C(C(=O)OCC)=C(C)C
- T/C (dose: 21.3 mg/kg/injection, schedule: Q01DX009 (ip), vehicle: saline with Tween-80): 93 % of control
- T/C (dose: 42.5 mg/kg/injection, schedule: Q01DX009 (ip), vehicle: saline with Tween-80): 90 % of control
- T/C (dose: 85.0 mg/kg/injection, schedule: Q01DX009 (ip), vehicle: saline with Tween-80): 91 % of control
- T/C (dose: 170.0 mg/kg/injection, schedule: Q01DX009 (ip), vehicle: saline with Tween-80): 93 % of control
- T/C (dose: 177.0 mg/kg/injection, schedule: Q01DX009 (ip), vehicle: saline with Tween-80): 123 % of control
- T/C [16]: 120 % of control

SMILES: CNC(=O)OCc1c(COC(=O)NC)c(-c2ccc(C(F)(F)F)cc2)n(C)c1C
- T/C (dose: 3.13 mg/kg/injection, schedule: Q01DX009 (ip), vehicle: distilled water + Tween-80): 123 % of control
- T/C (dose: 50.0 mg/kg/injection, schedule: Q01DX009 (ip), vehicle: distilled water + Tween-80): 115 % of control

SMILES: CCC(=O)OC1(c2ccccc2)CCP(C)(=S)CC1 (configuration not stated)
- T/C [6]: 97 % of control
- T/C [7]: 106 % of control
- T/C [8]: 101 % of control

SMILES: O=C(NC(Cc1c[nH]c2ccccc12)C(=O)O)OCC1c2ccccc2-c2ccccc21 (configuration not stated)
- T/C [1]: 100 % of control
- T/C [2]: 95 % of control

SMILES: CC(NNC(=S)N1CCCCCC1)c1cc2ccccc2cn1 (configuration not stated)
- T/C [3]: 108 % of control and 98 % of control
- T/C [4]: 112 % of control
- T/C [5]: 123 % of control
- T/C (dose: 400.0 mg/kg/injection, schedule: Q01DX005 (ip), vehicle: saline with Tween-80): 153 % of control

SMILES: Cl[Si](Cl)(Cl)CCc1ccccn1
- T/C (dose: 25.0 mg/kg/injection, schedule: Q01DX009 (ip), vehicle: saline): 99 % of control
- T/C [10]: 86 % of control
- T/C [11]: 95 % of control
- T/C [12]: 100 % of control

SMILES: COc1cc2c(=O)n3c4c(cccc4c2cc1OC)CCC3
- T/C (dose: 25.0 mg/kg/injection, schedule: Q01DX009 (ip), vehicle: other): 94 % of control
- T/C (dose: 50.0 mg/kg/injection, schedule: Q01DX009 (ip), vehicle: other): 90 % of control
- T/C (dose: 100.0 mg/kg/injection, schedule: Q01DX009 (ip), vehicle: other): 87 % of control
- T/C (dose: 200.0 mg/kg/injection, schedule: Q01DX009 (ip), vehicle: other): 92 % of control
- T/C (dose: 400.0 mg/kg/injection, schedule: Q01DX009 (ip), vehicle: other): 100 % of control

SMILES: Cc1cc2c3c([nH]c2cc1[N+](=O)[O-])CCCC3=O
- T/C (dose: 25.0 mg/kg/injection, schedule: Q01DX005 (ip), vehicle: Klucel (hydroxypropylcellulose) (HPC)): 88 % of control
- T/C [1]: 88 % of control
- T/C [2]: 86 % of control
- T/C [13]: 90 % of control
